Assay [1] addresses T1, HDAC8 (Homo sapiens, UniProt Q9BY41).
T1 construct: purchased BPS bioscience
T1 sequence (Q9BY41 1-377): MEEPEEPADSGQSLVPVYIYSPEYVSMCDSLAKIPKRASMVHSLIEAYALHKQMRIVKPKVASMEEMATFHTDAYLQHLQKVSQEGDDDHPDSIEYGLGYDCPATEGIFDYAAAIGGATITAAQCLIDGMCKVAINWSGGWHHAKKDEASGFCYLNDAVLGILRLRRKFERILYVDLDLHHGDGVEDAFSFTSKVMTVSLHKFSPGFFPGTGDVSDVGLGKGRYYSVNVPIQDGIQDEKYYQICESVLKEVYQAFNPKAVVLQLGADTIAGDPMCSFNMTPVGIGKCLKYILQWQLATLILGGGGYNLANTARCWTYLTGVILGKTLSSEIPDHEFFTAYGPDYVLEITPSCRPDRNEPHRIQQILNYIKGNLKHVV
Description: HDAC8 inhibitory activity analysis (in vitro), RFU analysis, HDAC Fluorogenic assay kit. The format is biochemical. Particulars: compound final concentration 10 µM; HDAC substrate 2A 20 µM; positive control (1% DMSO) set to 100, lower = more inhibition.
Description: The compound of the Example was diluted to 1 mM (1% DMSO concentration) using DMSO to obtain a final concentration of 10 µM, and prepared by diluting 1/10 with assay buffer. In a 96-well black round-bottom plate, 5 µL of the diluted compound of the Example, 5 µL of the diluted HDAC substrate 2A, 5 µL of BSA (1 mg/mL), 5 µL of the HDAC8 enzyme diluted to an appropriate concentration, and 30 µL of assay buffer were added, and the enzyme reaction was performed at 37°C for 30 minutes. […] Afterwards, 50 µL of 2X HDAC developer was added to each well. After reacting for 15 minutes at room temperature, the fluorescence values at excitation wavelengths of 350-380 nm and emission wavelengths of 440-460 nm were measured using a microplate reader (Synergy Neo).

The target of assay [2] is T1, HDAC8. Description: Selective HDAC inhibition, HDAC Fluorogenic assay kit. The conditions noted are these: final concentration 10 µM; HDAC substrate 2A 20 µM; positive control (1% DMSO) set to 100; read-out: HDAC8 enzyme activity (%). The format is biochemical.
Description: (§1) For analysis, HDAC substrate 3 was diluted in buffer to a concentration of 200 µM and used in HDAC 1, 2, 3, 6, and 10 assays, HDAC substrate 2A was diluted in buffer to a concentration of 200 µM and used in HDAC 4, 7, 9, and 11 assays, HDAC substrate 2A was diluted in buffer to a concentration of 20 µM and used in HDAC 8 assays. For the HDAC 11 assay, a dedicated buffer included in the kit was used separately, and the same buffer was used for the remaining assays. The compound of the Example was diluted to 1 mM (1% DMSO concentration) using DMSO to obtain a final concentration of 10 µM, and prepared by diluting 1/10 with assay buffer. In a 96-well black round-bottom plate, 5 µL of the diluted compound of the Example, 5 µL of the diluted HDAC substrate, 5 µL of BSA (1 mg/ml), 5 µL of the HDAC enzyme diluted to the appropriate concentration, and 30 µL of assay buffer were added, and the enzyme reaction was performed at 37°C for 30 minutes. […] Afterwards, 50 µL of 2X HDAC developer was added to each well. After reacting for 15 minutes at room temperature, the fluorescence values at excitation wavelengths of 350-380 nm and emission wavelengths of 440-460 nm were measured using a microplate reader (Synergy Neo).
Assay [3] has as its target HDAC1 (Homo sapiens, UniProt Q13547). The assay is described as above. Particulars: final concentration 10 µM; HDAC substrate 3 200 µM; positive control (1% DMSO) set to 100.
Description: as §1
The target of assay [4] is HDAC2 (Homo sapiens, UniProt Q92769). Described as above. The conditions noted are these: final concentration 10 µM; HDAC substrate 3 200 µM; positive control (1% DMSO) set to 100.
Description: as §1
The target in assay [5] is HDAC4 (Homo sapiens, UniProt P56524). The description is as above. The conditions noted are these: read-out: HDAC4 enzyme activity (%).
Description: as §1
Assay [6] concerns the target T2, HDAC6 (Homo sapiens, UniProt Q9UBN7).
T2 sequence (Q9UBN7 1-1215): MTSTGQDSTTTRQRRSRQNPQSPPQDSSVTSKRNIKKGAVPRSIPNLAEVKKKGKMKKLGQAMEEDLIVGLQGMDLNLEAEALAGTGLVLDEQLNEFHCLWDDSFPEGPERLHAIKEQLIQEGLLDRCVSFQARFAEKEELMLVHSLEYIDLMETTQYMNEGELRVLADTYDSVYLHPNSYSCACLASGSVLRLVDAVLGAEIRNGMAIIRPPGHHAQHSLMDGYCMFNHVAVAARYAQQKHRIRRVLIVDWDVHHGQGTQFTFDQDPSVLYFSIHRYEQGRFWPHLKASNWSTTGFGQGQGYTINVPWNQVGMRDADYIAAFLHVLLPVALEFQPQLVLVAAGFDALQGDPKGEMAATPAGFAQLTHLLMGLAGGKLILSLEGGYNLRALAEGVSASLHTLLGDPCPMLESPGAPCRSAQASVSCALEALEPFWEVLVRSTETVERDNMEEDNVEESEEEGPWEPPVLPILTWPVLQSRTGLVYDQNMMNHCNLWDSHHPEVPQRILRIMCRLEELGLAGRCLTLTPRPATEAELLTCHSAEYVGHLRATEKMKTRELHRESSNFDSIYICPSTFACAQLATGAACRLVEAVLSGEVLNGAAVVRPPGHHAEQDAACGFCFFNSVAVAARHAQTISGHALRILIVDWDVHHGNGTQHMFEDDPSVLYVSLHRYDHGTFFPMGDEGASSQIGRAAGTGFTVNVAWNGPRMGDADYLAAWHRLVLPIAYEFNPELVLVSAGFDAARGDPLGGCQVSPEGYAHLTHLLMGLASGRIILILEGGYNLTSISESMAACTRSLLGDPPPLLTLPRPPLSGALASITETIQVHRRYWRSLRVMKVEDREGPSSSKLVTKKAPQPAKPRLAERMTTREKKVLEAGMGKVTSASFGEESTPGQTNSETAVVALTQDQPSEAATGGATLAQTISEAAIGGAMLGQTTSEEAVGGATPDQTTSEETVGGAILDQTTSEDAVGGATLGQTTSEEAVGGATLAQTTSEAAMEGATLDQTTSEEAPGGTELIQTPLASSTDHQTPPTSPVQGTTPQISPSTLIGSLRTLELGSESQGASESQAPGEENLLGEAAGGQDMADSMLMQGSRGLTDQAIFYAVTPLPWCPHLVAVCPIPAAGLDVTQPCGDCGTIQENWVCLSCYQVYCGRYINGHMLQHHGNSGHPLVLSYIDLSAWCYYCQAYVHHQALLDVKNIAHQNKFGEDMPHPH
The description is as above. Particulars: final concentration 10 µM; HDAC substrate 3 200 µM; positive control (1% DMSO) set to 100.
Description: as §1

The target in assay [7] is HDAC9 (Homo sapiens, UniProt Q9UKV0). The description is as above. Particulars: read-out: HDAC9 enzyme activity (%).
Description: as §1
The target in assay [8] is T3, HDAC10 (Homo sapiens, UniProt Q969S8).
T3 sequence (Q969S8 1-669): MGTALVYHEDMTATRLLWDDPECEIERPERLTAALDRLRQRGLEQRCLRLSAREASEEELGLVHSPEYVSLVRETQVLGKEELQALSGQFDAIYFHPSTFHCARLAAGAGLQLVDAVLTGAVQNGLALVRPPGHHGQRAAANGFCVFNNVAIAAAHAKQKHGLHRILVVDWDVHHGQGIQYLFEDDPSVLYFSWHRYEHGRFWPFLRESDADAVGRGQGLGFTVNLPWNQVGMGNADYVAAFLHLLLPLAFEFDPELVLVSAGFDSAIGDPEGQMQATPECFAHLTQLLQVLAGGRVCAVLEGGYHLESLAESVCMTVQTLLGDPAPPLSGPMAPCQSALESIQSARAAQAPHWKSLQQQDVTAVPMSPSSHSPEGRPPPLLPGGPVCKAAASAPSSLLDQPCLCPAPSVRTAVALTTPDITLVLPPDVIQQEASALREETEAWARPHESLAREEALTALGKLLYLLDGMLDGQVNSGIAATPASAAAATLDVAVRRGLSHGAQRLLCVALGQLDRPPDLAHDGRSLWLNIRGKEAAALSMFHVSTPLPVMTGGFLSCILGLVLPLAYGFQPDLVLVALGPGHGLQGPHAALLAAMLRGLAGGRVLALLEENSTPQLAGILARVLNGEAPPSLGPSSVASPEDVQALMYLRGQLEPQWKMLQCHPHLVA
The description is as above. The conditions noted are these: final concentration 10 µM; HDAC substrate 3 200 µM; positive control (1% DMSO) set to 100.
Description: as §1

Assay [9] concerns the target T4, HDAC11 (Homo sapiens, UniProt Q96DB2).
T4 sequence (Q96DB2 1-347): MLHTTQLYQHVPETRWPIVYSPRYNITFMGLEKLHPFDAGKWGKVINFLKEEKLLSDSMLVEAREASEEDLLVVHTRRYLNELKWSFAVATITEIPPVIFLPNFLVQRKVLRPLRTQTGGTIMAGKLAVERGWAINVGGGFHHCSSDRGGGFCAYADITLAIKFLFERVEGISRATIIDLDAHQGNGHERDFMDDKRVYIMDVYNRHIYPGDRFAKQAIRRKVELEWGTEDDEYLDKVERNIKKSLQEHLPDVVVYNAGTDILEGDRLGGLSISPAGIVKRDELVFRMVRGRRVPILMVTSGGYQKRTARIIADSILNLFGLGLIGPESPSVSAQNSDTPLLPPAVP
The assay is described as above. The conditions noted are these: read-out: HDAC11 enzyme activity (%).
Description: as §1

Sequence of HDAC4 (P56524 whole entry): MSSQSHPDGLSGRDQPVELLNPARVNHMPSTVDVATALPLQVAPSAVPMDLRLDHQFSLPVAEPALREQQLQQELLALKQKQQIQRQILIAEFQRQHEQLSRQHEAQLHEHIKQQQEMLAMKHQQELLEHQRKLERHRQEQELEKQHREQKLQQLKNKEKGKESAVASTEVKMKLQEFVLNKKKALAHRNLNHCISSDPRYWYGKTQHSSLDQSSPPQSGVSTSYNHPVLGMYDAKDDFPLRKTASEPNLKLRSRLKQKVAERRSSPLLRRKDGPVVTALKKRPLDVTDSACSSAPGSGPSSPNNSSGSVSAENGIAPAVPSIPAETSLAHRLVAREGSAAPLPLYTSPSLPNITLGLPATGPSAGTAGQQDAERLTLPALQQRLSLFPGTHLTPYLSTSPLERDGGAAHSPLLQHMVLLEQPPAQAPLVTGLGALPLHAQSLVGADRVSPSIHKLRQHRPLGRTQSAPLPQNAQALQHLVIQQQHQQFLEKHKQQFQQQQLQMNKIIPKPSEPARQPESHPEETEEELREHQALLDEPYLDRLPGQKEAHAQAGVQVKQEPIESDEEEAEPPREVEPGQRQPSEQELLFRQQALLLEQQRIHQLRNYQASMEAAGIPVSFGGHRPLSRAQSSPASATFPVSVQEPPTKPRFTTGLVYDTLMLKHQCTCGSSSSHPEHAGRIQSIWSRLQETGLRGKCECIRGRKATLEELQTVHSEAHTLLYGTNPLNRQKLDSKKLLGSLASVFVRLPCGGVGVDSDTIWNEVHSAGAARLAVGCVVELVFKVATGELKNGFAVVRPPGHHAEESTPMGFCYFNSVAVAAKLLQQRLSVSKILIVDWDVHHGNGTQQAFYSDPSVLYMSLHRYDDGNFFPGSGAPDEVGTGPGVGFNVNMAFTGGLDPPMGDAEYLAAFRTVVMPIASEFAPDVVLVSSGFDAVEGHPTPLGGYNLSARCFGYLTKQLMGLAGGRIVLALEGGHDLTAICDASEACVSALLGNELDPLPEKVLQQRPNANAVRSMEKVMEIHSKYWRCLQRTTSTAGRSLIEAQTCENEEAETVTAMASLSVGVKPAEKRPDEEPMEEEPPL
Sequence of HDAC1 (Q13547 whole entry): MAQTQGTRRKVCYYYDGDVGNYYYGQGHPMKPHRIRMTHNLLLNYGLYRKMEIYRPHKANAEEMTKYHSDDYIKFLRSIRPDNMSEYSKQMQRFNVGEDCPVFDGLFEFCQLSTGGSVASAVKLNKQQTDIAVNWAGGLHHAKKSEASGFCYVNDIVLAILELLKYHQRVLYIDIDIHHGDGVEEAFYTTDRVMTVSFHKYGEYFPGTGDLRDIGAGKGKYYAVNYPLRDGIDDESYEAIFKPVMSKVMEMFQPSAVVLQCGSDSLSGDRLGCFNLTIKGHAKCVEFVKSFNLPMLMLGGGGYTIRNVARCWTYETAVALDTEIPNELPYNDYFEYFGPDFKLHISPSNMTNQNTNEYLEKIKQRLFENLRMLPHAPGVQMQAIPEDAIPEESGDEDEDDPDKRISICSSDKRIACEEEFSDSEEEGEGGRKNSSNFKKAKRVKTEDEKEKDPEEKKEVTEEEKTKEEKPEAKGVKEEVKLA
Sequence of HDAC9 (Q9UKV0 whole entry): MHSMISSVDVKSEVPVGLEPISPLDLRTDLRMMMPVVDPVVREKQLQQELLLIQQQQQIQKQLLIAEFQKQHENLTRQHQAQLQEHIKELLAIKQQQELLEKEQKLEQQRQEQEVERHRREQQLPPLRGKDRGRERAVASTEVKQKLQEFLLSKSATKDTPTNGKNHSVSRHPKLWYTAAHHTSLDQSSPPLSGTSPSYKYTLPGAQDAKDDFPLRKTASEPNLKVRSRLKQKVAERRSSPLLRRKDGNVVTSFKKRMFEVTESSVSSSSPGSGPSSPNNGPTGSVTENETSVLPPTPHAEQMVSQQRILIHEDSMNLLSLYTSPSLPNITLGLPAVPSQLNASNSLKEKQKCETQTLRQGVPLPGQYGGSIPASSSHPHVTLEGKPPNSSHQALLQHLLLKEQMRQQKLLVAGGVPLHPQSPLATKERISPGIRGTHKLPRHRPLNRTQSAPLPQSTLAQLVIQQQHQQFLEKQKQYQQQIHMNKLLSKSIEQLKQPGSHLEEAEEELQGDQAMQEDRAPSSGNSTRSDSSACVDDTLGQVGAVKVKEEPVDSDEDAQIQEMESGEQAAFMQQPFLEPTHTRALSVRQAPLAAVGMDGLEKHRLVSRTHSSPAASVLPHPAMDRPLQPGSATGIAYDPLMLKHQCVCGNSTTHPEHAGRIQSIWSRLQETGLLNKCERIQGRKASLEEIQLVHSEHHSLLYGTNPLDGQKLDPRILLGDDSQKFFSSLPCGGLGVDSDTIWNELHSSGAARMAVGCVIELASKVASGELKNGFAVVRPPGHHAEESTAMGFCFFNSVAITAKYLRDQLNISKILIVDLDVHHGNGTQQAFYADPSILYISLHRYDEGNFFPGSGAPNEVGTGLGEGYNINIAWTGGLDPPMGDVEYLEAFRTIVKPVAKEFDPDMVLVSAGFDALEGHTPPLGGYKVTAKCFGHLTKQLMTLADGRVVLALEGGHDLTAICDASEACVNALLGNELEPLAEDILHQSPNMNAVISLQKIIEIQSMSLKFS
Sequence of HDAC2 (Q92769 whole entry): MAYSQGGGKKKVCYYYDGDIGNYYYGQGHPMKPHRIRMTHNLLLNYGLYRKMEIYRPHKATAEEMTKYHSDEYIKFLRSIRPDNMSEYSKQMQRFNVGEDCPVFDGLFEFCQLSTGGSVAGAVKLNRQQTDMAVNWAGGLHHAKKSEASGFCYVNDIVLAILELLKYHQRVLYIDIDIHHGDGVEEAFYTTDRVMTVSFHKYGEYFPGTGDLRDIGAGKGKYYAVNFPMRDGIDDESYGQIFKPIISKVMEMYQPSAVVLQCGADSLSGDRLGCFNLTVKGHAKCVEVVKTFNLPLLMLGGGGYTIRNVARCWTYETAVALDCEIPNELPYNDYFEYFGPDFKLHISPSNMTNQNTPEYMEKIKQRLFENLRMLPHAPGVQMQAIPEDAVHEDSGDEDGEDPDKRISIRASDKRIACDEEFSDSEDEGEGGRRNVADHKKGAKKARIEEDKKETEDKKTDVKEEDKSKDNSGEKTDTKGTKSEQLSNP

For `CC(/C=C/C(=O)NO)=C\[C@@H](C)C(=O)c1ccc(N(C)C)cc1` [TSA, Trichostatin A, reference compound], the “RFU (%)” value in assay [1] is 13.83%. Further, the remaining activity at 10 µM in [2] is 11.1%; in [5] it was 18.8%; in assay [7] it was 21.5%; in assay [9], 59.1%. Further, the “HDAC1 enzyme activity (%)” value in [3] stood at 1.22%. In addition, the “HDAC2 enzyme activity (%)” value in assay [4] was 0.70%. The “HDAC6 enzyme activity (%)” value in assay [6] came out at 1.11%. In assay [8], the “HDAC10 enzyme activity (%)” value stood at 1.21%.

(Values after patent EP4501917A1, “3,4-DIHYDROQUINOXALINE-2-CARBOXIMIDE DERIVATIVE COMPOUND AND PHARMACEUTICAL COMPOSITION COMPRISING SAME FOR PREVENTING OR TREATING CANCER DISEASE” (Daegu-Gyeongbuk Medical Innovation Foundation, priority 2022, dated 2023).)
